Experimental data: patent US7754462B2, “Enzyme catalysis in the presence of ionic liquids” (priority 2000, dated 2010)

Assays:
Format in all cases: biochemical
[1] = test system: Lipase from Candida antarctica (Type A); test: Enantioselective acylation of R,S-1-phenyl ethanol in ionic liquids
Method: (§1) 4.4 ml of an ionic liquid in accordance with Table 3 or tert-butylmethyl ether are mixed with 122 μl of vinyl acetate and 54 μl of 1-phenyl ethanol so that a substrate solution with approximately 0.1 mol/l of 1-phenyl ethanol and 0.3 mol/l of vinyl acetate is obtained. Each 1 mg of lyophilised lipase (>120 U/mg) is mixed with 0.4 ml of substrate solution, thoroughly mixed and incubated at 24° C. for 3-4 days, shaking slightly.
(§2) This hexane/isopropanol extract is used to determine the concentrations and enantiomer ratios of 1-phenyl ethanol and 1-phenylethyl acetate using HPLC. The conversion and the enantiomer excess were calculated from these concentrations (see Table 3).

[2] = test system: Lipase from Alcaligines sp.; test: as above
Method: as §1, §2

[3] = molecular target: T1, Lipase from Candida antarctica (Type B) (Moesziomyces antarcticus, UniProt P41365); test: Enantioselective acylation of R,S-1-phenylethanol in ionic liquids; details: 24° C., 3-4 days
T1 sequence (P41365 26-342): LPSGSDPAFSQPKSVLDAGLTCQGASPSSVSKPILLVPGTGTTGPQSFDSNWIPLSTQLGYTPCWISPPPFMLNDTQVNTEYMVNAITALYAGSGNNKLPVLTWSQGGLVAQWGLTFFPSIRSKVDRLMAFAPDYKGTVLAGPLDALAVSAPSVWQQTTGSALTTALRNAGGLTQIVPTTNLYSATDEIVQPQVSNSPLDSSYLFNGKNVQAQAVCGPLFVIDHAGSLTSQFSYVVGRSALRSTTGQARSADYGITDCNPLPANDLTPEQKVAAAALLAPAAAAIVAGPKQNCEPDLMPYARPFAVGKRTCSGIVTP
Method: as §1, §2

[4] = test system: Lipase from Pseudomonas sp.; test: Enantioselective acylation of R,S-1-phenyl ethanol in ionic liquids; parameters: key: (+) good to better; (±) the same
Method: as §1
For further processing 100 μl of the reaction formulation is mixed with 1 ml of n-hexane/Isopropanol (97.5/2.5 v/v) and mixed thoroughly. This hexane/isopropanol extract is used to determine the concentrations and enantiomer ratios of 1-phenyl ethanol and 1-phenylethyl acetate using HPLC. The conversion and the enantiomer excess were calculated from these concentrations (see Table 3).
Each 3 mg of lyophilised lipase (400 U/mg) is mixed with 0.4 ml of a substrate solution as in Example 3. The further procedure corresponds to that described in Example 3.

[5] = molecular target: T1, Lipase from Candida antarctica (Type B); test: Recycling of the lipase in ionic liquid by distillation; details: 40 min at 40° C.; distillation 85° C., 0.06 mbar
Method: 600 mg of lyophilised lipase (approx. 10 U/mg) is mixed with 4 ml of ionic liquid (BMIm^+(CF3SO2)2N^−), 1.2 ml of vinyl acetate and 0.7 ml 1-phenyl ethanol and thoroughly mixed. The reaction mixture is incubated for 40 min at 40° C.
The non-converted educts and the reaction product […] is then distilled off (85° C., 0.06 mbar).
The enzyme/ionic liquid mixture is cooled, re-mixed with 1.2 ml of vinyl acetate and 0.7 ml of 1-phenyl ethanol and again incubated for 40 min at 40° C.

[6] = molecular target: T2, Formate dehydrogenase from Candida boidinii (FDH) (Candida boidinii, UniProt O13437); test: NAD reduction by formate dehydrogenase; enzyme activity with buffer replaced by ionic liquid; parameters: key: (+) good to better; (±) the same; details: 25° C., pH 7
T2 sequence (O13437 1-364): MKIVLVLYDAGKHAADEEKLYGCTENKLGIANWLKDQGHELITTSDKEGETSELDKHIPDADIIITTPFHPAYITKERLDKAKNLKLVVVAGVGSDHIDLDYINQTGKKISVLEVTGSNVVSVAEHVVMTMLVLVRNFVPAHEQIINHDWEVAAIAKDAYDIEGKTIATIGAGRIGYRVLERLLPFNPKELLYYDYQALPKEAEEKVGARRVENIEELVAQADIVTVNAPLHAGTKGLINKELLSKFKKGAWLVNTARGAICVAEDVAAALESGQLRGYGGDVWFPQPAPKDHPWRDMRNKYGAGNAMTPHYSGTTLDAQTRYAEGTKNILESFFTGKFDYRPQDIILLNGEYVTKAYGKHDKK
Method: The FDH-catalysed oxidation of formic acid to carbon dioxide by the reduction of nicotinamide adenine dinucleotide (NAD^+ to NADH+H^+) is used as the test reaction to determine the enzyme activity. In the enzyme assay the increase in NADH with time at 25° C. is detected photometrically at a wavelength of 340 nm.
Composition of the enzyme assay: 1 ml buffer solution (50 mM triethanolamine hydrochloride, 1 mM dithiothreitol, hydrochloric acid) pH 7 is mixed with 0.1 ml of aqueous sodium formate solution (2.4 M) and 0.1 ml of enzyme solution (0.7 mg/ml, 8.4 U). The enzyme solution already contains the cofactor NAD (6 mM).

Row | Molecule | Conversion compared to the standard reaction in tert-butylmethyl ether [1] | Enantiomer excess compared to the standard reaction in tert-butylmethyl ether [1] | Conversion compared to the standard reaction in tert-butylmethyl ether [2] | Enantiomer excess compared to the standard reaction in tert-butylmethyl ether [2] | Conversion compared to the standard reaction in tert-butylmethyl ether [3] | Enantiomer excess compared to the standard reaction in tert-butylmethyl ether [3] | Conversion compared to the standard reaction in tert-butylmethyl ether [4] | Enantiomer excess compared to the standard reaction in tert-butylmethyl ether [4] | lipase activity on repeated incubation and distilling off [5] | enzyme activity compared with the standard reaction in the buffer solution ([6]; 25 vol % ionic liquid) | enzyme activity compared with the standard reaction in the buffer solution ([6]; 50 vol % ionic liquid) | enzyme activity compared with the standard reaction in the buffer solution ([6]; 75 vol % ionic liquid)
1 | CCCCCCCCn1cc[n+](C)c1.F[B-](F)(F)F [OMIm^+ BF4^−, Octyl-methyl-imidazolium BF4^−] | + | ± | ± | + | + | + | – | – | – | – | – | –
2 | CCCCn1cc[n+](C)c1.O=S(=O)([N-]S(=O)(=O)C(F)(F)F)C(F)(F)F [BMIm^+ (CF3SO2)2N^−] | – | – | – | – | + | + | + | + | without the lipase activity diminishing | – | – | –
3 | Methyl-methyl-imidazolium-methyl sulphate [MMIm^+ MeSO4^−] | – | – | – | – | – | – | – | – | – | ± | + | +
4 | CCCC[n+]1ccc(C)cc1.F[B-](F)(F)F [4-MBP^+ BF4^−, 4-methyl-butyl-pyridinium BF4^−] | – | – | ± | + | + | + | ± | + | – | – | – | –
5 | CCCCn1cc[n+](C)c1.O=S(=O)([O-])C(F)(F)F [BMIm^+ CF3SO3^−, Butyl-methyl-imidazolium-trifluoro methane sulphonate (=triflate)] | + | + | ± | + | + | + | + | + | – | – | – | –
6 | CCCCn1cc[n+](C)c1.F[P-](F)(F)(F)(F)F [BMIm^+ PF6^−, Butyl-methyl-imidazolium PF6^−] | + | + | ± | + | – | – | – | – | – | – | – | –
7 | CCCCn1cc[n+](C)c1.F[B-](F)(F)F [BMIm^+ BF4^−, Butyl-methyl-imidazolium BF4^−] | ± | + | ± | + | + | + | – | – | – | – | – | –
8 | CCCCCCn1cc[n+](C)c1.F[B-](F)(F)F [HMIm^+ BF4^−, Hexyl-methyl-imidazolium BF4^−] | + | + | ± | + | ± | + | – | – | – | – | – | –
9 | CCCCCCCCC[n+]1ccn(C)c1.F[P-](F)(F)(F)(F)F [NMIm^+ PF6^−, Nonyl-methyl-imidazolium PF6^−] | + | + | – | – | ± | + | – | – | – | – | – | –
